In patent US4785005A, “6-(6-alkylpyridone)-carbostyril compounds and their cardiotonic uses” (Rorer Pharmaceutical Corporation, priority 1986, dated 1988):

Key:
[1] = test system: anesthetized dog (myocardial contractile force, heart rate, arterial pressure, aortic flow); experiment: Ganglionic-beta blocked anesthetized dog procedure; type: in vivo; settings: for ED50: Canis lupus familiaris, iv, read-out: inotropic ED50
Protocol: Adult mongrel dogs of either sex weighing 10 to 16 kg are fasted overnight, anesthetized with pentobarbital sodium 35 mg/kg, i.v. intubated, respired with room air using a Harvard respirator, and instrumented surgically to monitor myocardial contractile force, heart rate, arterial pressure, aortic flow and EKG limb lead II. The aforesaid measurements are recorded continously on a strip chart recorder.
Myocardial contractile force is monitored by a a Walton-Brodie strain gauge sutured to the left ventricular myocardium parallel to the left anterior descending coronary artery. Arterial pressure is measured using a fluid-filled catheter attached to a pressure transducer introduced via the right femoral artery and positioned in the thoracic aorta. Mean arterial pressure is determined by electronically clamping the pulsatile pressure signal. Aortic flow is monitored using a precalibrated, noncannulating electromagnetic flow probe positioned around the thoracic aorta. Heart rate is monitored using a cardiotachometer triggered by the QRS complex of the limb lead II EKG. The right femoral vein is cannulated for intravenous infusion of drugs. Body temperature is maintained at 37±1° C.
Following a 30 min postsurgical stabilization period, control values are recorded. Myocardial depression is induced by ganglionic and beta receptor blockade. Initially, the responsiveness of the autonomic nervous system is assessed by performing a 30 sec bilateral carotid occlusion (BCO). Ten minutes later, a saline solution of isoproterenol 0.3 mcg/kg i.v. is administered to assess beta receptor integrity. Ten minutes after that, a saline solution of mecamylamine 2 mg/kg i.v. is infused, followed by a saline solution of propranolol 1 mg/kg i.v. plus 0.3 mg/kg/hr. […] Ten minutes later, the test compound or vehicle is administered intravenously in ascending doses at 30 min intervals at […] in a total volume of 3.5 ml. On completion of the experiment, both BCO and isoproterenol challenges are repeated to verify ganglionic and beta blockade.
Solutions of the most preferred compound of the present invention, 6-[3'-cyano-6'-methyl-2'-oxo(1H)pyridin-5'-yl]-3,4-dihydrocarbostyril, and milrinone, 3-cyano-6-methyl-5-(4-pyridyl)-pyridin-2-one, were administered intravenously in accordance with the procedure described above. The solutions were prepared by dissolution in PEG 200 followed by serial saline dilution to yield test doses. Test solutions of 6-[3'-cyano-6'-methyl-2'-oxo(1H)pyridin-5'-yl]-3,4-dihydrocarbostyril were prepared at doses of 3, 10 and 30 mcg (expressed as base) per kg, and solutions of milrinone were prepared at test doses of 30, 100 and 300 mcg/kg.

[2] = test system: Peak III cAMP phosphodiesterase; experiment: Inhibition of Peak III cAMP phosphodiesterase activity; type: biochemical, dog; settings: fold more potent than milrinone
Description: The following in vitro method is another means for measuring the inotropic potency of the present compounds. This method is a modification of the enzyme inhibition method reported by Thompson, W. J. and Appleman, M. M., "Characterization of Cyclic Nucleotide Phosphodiesterase of Rat Tissue," J. Biological Chemistry, Vol. 246, pp. 3145-3150 (1971); and Thompson, W. J., Brooker, G. and Appleman, M. M., "Assay of Cyclic Nucleotide Phosphodiesterase with Radioactive Substrates," Methods in Enzymology, Vol. 38, pp. 205-212 (1974); and is believed to correlate to in vivo intropic activity in humans.
The test compounds are included in media comprising a radioactively labeled substrate (^3 H-cyclic nucleotide) such as adenosine 3':5'-monophosphate (cyclic AMP) and guanosine-3':5'-monophosphate(cyclic GMP), and a non-rate-limiting amount of 5'-nucleotidease isolated from a dog heart. The inhibition of the enzyme hydrolysis of the 5'-nucleotide product of the cNUC-PDEase to the corresponding nucleoside is measured by separating the charged, unhydrolyzed substrate from the uncharged hydrolysis product. Separation may be acheived either chromatographically from the uncharged nucleoside product of the assay with ion-exchange resin or preferentially quenched with the ion-exchange resin so that it is not quantitated with the liquid scintillation counter.

[3] = 100 mcg/kg i.v., ganglionic-beta blocked anesthetized dog
[4] = ganglionic-beta blocked anesthetized dog
[5] = 30 mcg/kg i.v., ganglionic-beta blocked anesthetized dog

Row | Compound | increase in contractile force [1, 3] | increase in heart rate [1, 3] | ED50 [1, 4] | maximum decrease of mean arterial pressure ([1]; i.v., dose-related, sustained, doses of 30, 100 and 300 mcg/kg tested) | increase in aortic blood flow (in words) ([1]; i.v., doses of 30, 100 and 300 mcg/kg tested) | increase in contractile force (maximum) [1, 5] | increase in heart rate [1, 5] | arterial blood pressure ([1]; i.v., at the doses tested (3, 10 and 30 mcg/kg)) | increase in aortic blood flow (maximum) ([1]; i.v., doses of 3, 10 and 30 mcg/kg tested) | potency in Peak III phosphodiesterase inhibition relative to milrinone [2]
1 | Cc1[nH]c(=O)c(C#N)cc1-c1ccncc1 [milrinone, 3-cyano-6-methyl-5-(4-pyridyl)-pyridin-2-one, reference compound] | 111% | 19% | 0.05 mg/kg | 32% | only transiently at low dose | – | – | – | – | –
2 | Cc1[nH]c(=O)c(C#N)cc1-c1ccc2c(c1)CCC(=O)N2 [6-[3'-Cyano-6'-methyl-2'-oxo(1H)pyridin-5'-yl]-3,4-dihydrocarbostyril] | – | – | 0.016 mg/kg | – | – | 97% | 17% | not altered | 51% | about twelve
